System: Ninety four (94) cell lines and PBMC
Assay: Cell viability assay, SRB staining, 94 cell lines and PBMC (Example 7, Experiment 2)
Format: cell-based
Procedure: Ninety four (94) cell lines were seeded at a density varying from 500 to 7000 cells/well depending on their growth characteristics. PBMC were seeded at the density 50,000-100,000 cells/well. Cells were incubated for 48 h prior to compound treatment. Compound 1 and DON were evaluated at a concertation range of 1 nM up to 100 μM. Compound 1 dilutions in DMSO and DON dilutions in PBS were performed in 96-well 0.5 mL plates (Greiner Bio-One, Germany). Compounds were then diluted 1:100 in RPMI medium. […] of cells were treated by mixing with 10 μL of the compound-containing media (resulting in a final DMSO concentration of 0.1%). The cells were allowed to grow at 37° C. for 120 h. Cells were fixed to the surface by addition of 10% TCA (for adherent growing cells) or 50% TCA (for semi-adherent growing cells or cells growing in suspension). After an hour of incubation at 4° C., plates were washed twice with 400 μL of deionized water and dried. Cells were then stained with 100 μL of 0.04% wt/v SRB. The plates were incubated at room temperature for at least 30 min and washed six times with 1% acetic acid to remove unbound stain. The plates were left to dry at room temperature and bound SRB was solubilized with 100 μL of 10 mM Tris base. Optical density was measured at 492, 520 and 560 nm using a Deelux-LED96 plate reader (Deelux Labortechnik GmbH, Germany).
Cell lines were purchased directly from the ATCC, NCI, CLS, and DSMZ cell line collections. A master bank and working aliquots were prepared. Cells used for the study had undergone less than 20 passages. To rule out potential contamination or wrong assignment, all cell lines were tested by STR analysis. Absence of mycoplasma contamination was confirmed for all cell lines used in the studies.
The cell lines were grown in the media recommended by the suppliers in the presence of 100 U/mL penicillin and 100 μg/mL streptomycin supplied with 10% FCS (PAA, Germany). RPMI 1640, DMEM, and MEM Earle's medium were from PAA (Coelbe, Germany), supplements 2 mM L-glutamine, 1 mM Na-pyruvate and 1% NEAA were from PAA (Coelbe, Germany), 2.5% horse serum, hydrocortisone, transferin, beta-estradiol, selenite and 1 U/mL insulin from Sigma-Aldrich (Munich, Germany). RPMI medium was used for culturing the following cell lines: 5637, 22RV1, 7860, A2780, A431, A549, ACHN, ASPC1, BT20, BXPC3, CAKI1, CLS439, COLO205, COLO678, DLD1, DU145, EFO21, EJ28, HCT15, HS578T, IGROV1, JAR, LOVO, MCF7, MDA MB231, MDA MB435, MDA MB436, MDA MB468, MHHES1, MT3, NCI H292, NCI H358M, NCI H460, NCIH82, OVCAR3, OVCAR4, PANC 1005 (addition of insulin), PBMC, PC3, RDES, SF268, SF295, SKBR3, SK MEL28, SKMEL5, SKOV3, SW620, U2OS, UMUC3, and U031.
DMEM medium was used to culture A204, A375, A673, C33A, CASKI, HCT116, HEPG2, HS729, HT29, J82, MG63, MIAPACA2 (addition of horse serum), PANC1, PLCPRF5, RD, SAOS2, SKLMS1, SKNAS, SNB75, T24, and TE671.
MEM Earle's medium was used for CACO2, CALU6, HEK293, HELA, HT1080, IMR90, JEG3, JIMT1, SKHEP1, SKNSH, and U87MG. Cell seeding conditions were optimized for each cell line. The cell seeding density varied from 500 to 7000 cells/well depending on their growth characteristics. Peripheral blood mononuclear cells (PBMC) were freshly isolated from whole blood of an anonymous donor through density gradient centrifugation using Ficoll solution (d=1.077). In short, blood was diluted 1:1 with PBS and carefully placed on the Ficoll. After centrifugation 1000×g for 15 min (braking rate 0), the ring containing mainly leucocytes was collected in PBS followed by three times washing with PBS to reduce the platelets. PBMC were seeded at the density 50,000-100,000 cells/well. Cells were grown in 5% CO2 atmosphere in a NB-203XXL incubator (N-BIOTEK Inc., Korea).
Ninety-four cell lines were tested in parallel. Cell growth and treatment were performed in 96 well microtitre plates CELLSTAR® (Greiner Bio-One, Germany). […]

[1] = Homo sapiens, 22Rv1, 22RV1, prostate
[2] = Homo sapiens, 786-0, 786O, kidney
[3] = Homo sapiens, A204, A204, muscle
[4] = Homo sapiens, A673, A673, muscle
[5] = Homo sapiens, A2780, A2780, ovary
[6] = Homo sapiens, A-375, A375, skin
[7] = Homo sapiens, A-431, A431, skin
[8] = Homo sapiens, ASPC1, ASPC1, pancreas
[9] = Homo sapiens, BT-20, BT20, breast
[10] = Homo sapiens, C-33-A, C33A, endometrial
[11] = Homo sapiens, CAKI-1, CAKI1, kidney
[12] = Homo sapiens, COLO 205, COLO205, colon
[13] = Homo sapiens, COLO-678, COLO678, colon
[14] = Homo sapiens, Ca-Ski, CASKI, endometrial
[15] = Homo sapiens, Caco-2, CACO2, colon
[16] = Homo sapiens, Calu-6, CALU6, lung
[17] = Homo sapiens, DLD-1, DLD1, colon
[18] = Homo sapiens, DU-145, DU145, prostate
[19] = Homo sapiens, EFO-21, EFO21, ovary
[20] = Homo sapiens, EJ-28, EJ28, bladder
[21] = Homo sapiens, Granta-519, GRANTA-519, hematological
[22] = Homo sapiens, HCT-15, HCT15, colon
[23] = Homo sapiens, HCT-116, HCT116, colon
[24] = Homo sapiens, HEK293, HEK293, kidney
[25] = Homo sapiens, HL-60, HL-60, hematological
[26] = Homo sapiens, HT-29, HT29, colon
[27] = Homo sapiens, HT-1080, HT1080, connective tissue
[28] = Homo sapiens, HeLa, endometrial
[29] = Homo sapiens, HepG2, HEPG2, liver
[30] = Homo sapiens, IGROV-1, IGROV1, ovary
[31] = Homo sapiens, JEG-3, JEG3, placenta
[32] = Homo sapiens, JIMT-1, JIMT1, breast
[33] = Homo sapiens, K562, K-562, hematological
[34] = Homo sapiens, Kasumi 1, KASUMI-1, hematological
[35] = Homo sapiens, L-363, L-363, hematological
[36] = Homo sapiens, MCF7, MCF7, breast
[37] = Homo sapiens, MDA-MB-231, MDAMB231, breast
[38] = Homo sapiens, MDA-MB-435, MDAMB435, skin

[N-]=[N+]=CC(=O)CC[C@H](N)C(=O)O [DON, 6-Diazo-5-oxo-L-norleucine, reference compound]
IC50 (5637, bladder): 0.881 µM | IC50 (CLS439, bladder): 7.82 µM | GI50 [1]: 0.981 µM | IC50 [1]: 1.04 µM | GI50 [2]: 2.39 µM | IC50 [2]: 2.93 µM | GI50 [3]: 4.99 µM | IC50 [3]: 17 µM | GI50 (Homo sapiens, A549, A549, lung): 4.05 µM | IC50 (Homo sapiens, A549, A549, lung): 4.49 µM | GI50 [4]: 1.95 µM | IC50 [4]: 2.2 µM | GI50 [5]: 3.65 µM | IC50 [5]: 3.9 µM | GI50 [6]: 3.15 µM | IC50 [6]: 3.33 µM | GI50 [7]: 6.5 µM | IC50 [7]: 8.52 µM | GI50 (Homo sapiens, ACHN, kidney): 5.34 µM | IC50 (Homo sapiens, ACHN, kidney): 6.34 µM | GI50 [8]: 3.92 µM | IC50 [8]: 5.58 µM | GI50 [9]: 16.8 µM | IC50 [9]: 51.1 µM | GI50 (Homo sapiens, BXPC-3, BXPC3, pancreas): 1.45 µM | GI50 [10]: 6.48 µM | IC50 [10]: 7.04 µM | GI50 [11]: 1.16 µM | IC50 [11]: 1.62 µM | GI50 [12]: 1.32 µM | IC50 [12]: 2.01 µM | GI50 [13]: 58.9 µM | IC50 [13]: 152 µM | GI50 [14]: 5.49 µM | IC50 [14]: 6.51 µM | GI50 [15]: 11.2 µM | IC50 [15]: 18.6 µM | GI50 [16]: 6.05 µM | IC50 [16]: 6.97 µM | GI50 [17]: 0.906 µM | IC50 [17]: 1.02 µM | GI50 [18]: 5.24 µM | IC50 [18]: 6.16 µM | GI50 [19]: 6.32 µM | IC50 [19]: 14.6 µM | GI50 [20]: 4.19 µM | IC50 [20]: 4.89 µM | GI50 [21]: 0.779 µM | IC50 [21]: 0.812 µM | GI50 [22]: 1.13 µM | IC50 [22]: 1.3 µM | GI50 [23]: 2.06 µM | IC50 [23]: 2.1 µM | GI50 [24]: 10.6 µM | IC50 [24]: 15.2 µM | GI50 [25]: 1.56 µM | IC50 [25]: 1.6 µM | GI50 [26]: 2.89 µM | IC50 [26]: 3.41 µM | GI50 [27]: 0.666 µM | IC50 [27]: 0.795 µM | GI50 [28]: 8.17 µM | IC50 [28]: 9.13 µM | GI50 [29]: 7.3 µM | IC50 [29]: 8.97 µM | GI50 (Homo sapiens, Hs-578T, HS578T, breast): 25.1 µM | GI50 [30]: 6.99 µM | IC50 [30]: 10.1 µM | GI50 (Homo sapiens, IMR-90, IMR90, lung): 11.8 µM | GI50 [31]: 5.79 µM | IC50 [31]: 6.64 µM | GI50 [32]: 11.2 µM | IC50 [32]: 26.8 µM | GI50 [33]: 1.06 µM | IC50 [33]: 1.17 µM | GI50 [34]: 5.17 µM | IC50 [34]: 12.7 µM | GI50 [35]: 0.343 µM | IC50 [35]: 0.522 µM | GI50 (Homo sapiens, LoVo, colon): 4.36 µM | IC50 (Homo sapiens, LoVo, colon): 4.66 µM | GI50 [36]: 2.09 µM | IC50 [36]: 6.07 µM | GI50 [37]: 8.37 µM | IC50 [37]: 13.8 µM | GI50 [38]: 2.48 µM | IC50 [38]: 2.66 µM | GI50 (Homo sapiens, MDA-MB-436, MDAMB436, breast): 13.3 µM
